Measured values as given in PMC5531494, “Target specificity, in vivo pharmacokinetics, and efficacy of the putative STAT3 inhibitor LY5 in osteosarcoma, Ewing's sarcoma, and rhabdomyosarcoma” (PLoS ONE, 2017).
Like-named read-outs stand apart in the source and are kept apart here.

Columns and labels:
[1] = target: T1, STAT4 (Homo sapiens, UniProt Q14765); test: Cytokine-induced STAT4 phosphorylation in SJSA cells, Western blot; assay type: cell-based; settings: induced by IFN-γ, IFN-α, or IL-4
T1 construct: endogenous in cells; host or cells: SJSA
T1 sequence (Q14765 whole entry): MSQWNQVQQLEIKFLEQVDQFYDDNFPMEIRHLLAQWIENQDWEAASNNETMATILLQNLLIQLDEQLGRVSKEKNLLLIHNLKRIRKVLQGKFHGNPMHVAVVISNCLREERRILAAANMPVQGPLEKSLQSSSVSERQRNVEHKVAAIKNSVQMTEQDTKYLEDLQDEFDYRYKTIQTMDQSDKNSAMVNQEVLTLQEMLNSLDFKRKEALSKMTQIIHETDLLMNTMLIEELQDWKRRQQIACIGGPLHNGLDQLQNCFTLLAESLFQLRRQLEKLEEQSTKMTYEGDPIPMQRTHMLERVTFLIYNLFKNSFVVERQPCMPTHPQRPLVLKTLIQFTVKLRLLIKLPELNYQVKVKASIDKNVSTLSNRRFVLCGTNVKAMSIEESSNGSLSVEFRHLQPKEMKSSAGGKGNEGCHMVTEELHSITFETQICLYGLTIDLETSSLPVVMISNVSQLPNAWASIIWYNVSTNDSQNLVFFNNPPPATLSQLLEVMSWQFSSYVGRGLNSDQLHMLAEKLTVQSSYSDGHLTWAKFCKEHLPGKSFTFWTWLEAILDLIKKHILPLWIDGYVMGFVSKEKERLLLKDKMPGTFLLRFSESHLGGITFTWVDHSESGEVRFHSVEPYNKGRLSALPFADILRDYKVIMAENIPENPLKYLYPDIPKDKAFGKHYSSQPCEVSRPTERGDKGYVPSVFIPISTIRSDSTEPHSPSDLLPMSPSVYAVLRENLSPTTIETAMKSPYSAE
Description: Cell lysis, protein isolation and immunoblotting were performed as described previously. Twenty micrograms of protein were resolved using 4–12% Bis-Tris polyacrylamide gels. Gels were transferred to PVDF membranes and subjected to blocking and incubation with primary and secondary antibodies. The primary antibodies used in this study included: phospho-STAT3 (Tyr705, Cell Signaling, Boston, MA and Abcam, Cambridge, MA), total STAT3 (Cell Signaling and Abcam), phospho-STAT1 (Cell Signaling), total STAT1 (Cell Signaling), phospho-STAT2 (Cell Signaling), phospho-STAT4 (Cell Signaling), phospho-STAT6 (Cell Signaling), and GAPDH (Cell Signaling). Protein bands were detected using Western Lightning ® Plus Enhanced Chemiluminescence substrate (Perkin Elmer, Waltham, MA) and HyBlot CL ® Autoradiography film (Denville Scientific, Holliston, MA). The cytokines used in this study included: interferon gamma (IFN-γ, Cell Signaling), interferon alpha (IFN-α, Cell Signaling), interleukin-4 (IL-4, Cell Signaling), interleukin-6 (IL-6, Cell Signaling), and oncostatin M (OSM, Cell Signaling).
Fig 1 LY5 inhibits pSTAT3 in sarcoma cell lines. (A) The tumor cell lines RH30, EW8, and RD were treated with increasing concentrations of LY5 for 30 minutes. Cell lysates were collected for Western blotting of p-STAT3, total STAT3, and GAPDH. GAPDH was used as loading control. […]

[2] = Plasma PK profile in mice; assay type: in vivo; settings: ICR, mouse; for AUC(0-inf): read-out: AUC inf-obs; for bioavailability: read-out: F (bioavailability)
Description: (§1) Single-dose toxicity studies in mice were performed to identify the maximum tolerated dose of LY5. Additionally, 30 ICR mice (Harlan Laboratories, Indianapolis, IN) were divided into 3 groups to be dosed with 5 mg/kg LY5 (2 mg/ml) by oral (PO), intraperitoneal (IP) or intravenous (IV) routes to establish oral bioavailability. Animals were euthanized and blood was collected at allocated time points (5, 10, 20, 30 and 60 minutes, 2, 4, 6, 8 and 24 hrs) after LY5 administration, plasma was separated by centrifugation and frozen immediately on dry ice. Samples were stored at -80° C prior to analysis.
(§2) The liquid chromatography-mass spectrometry system utilized for these analyses consisted of a Dionex Ultimate 3000 RSLCnano High Performance Liquid Chromatography system and a Thermo Finnigan Quantum Ultras EMR mass spectrometer with an electrospray ionization source. Positive ionization mode was used for both LY5 and the internal standard, hesperetin. Plasma samples were collected and analyzed by the OSU James Comprehensive Cancer Center Pharmacoanalytical Shared Resource. Pharsight Phoenix WinNonlin software using non-compartmental analysis was used to generate PK parameters including maximum plasma concentration (Cmax), amount of time that drug is present at Cmax (Tmax), and total area under the curve (AUC). AUC all and AUC last were calculated by linear trapezoidal method of concentration-time curve up to the last measured point. AUC inf-obs was calculated by log-linear extrapolation of the terminal phase beyond the last collection time. Bioavailability (F) was calculated for IP and PO administration routes. Plasma stability and liver microsomal stability of LY5 were also assessed through this shared resource.

[3] = PK in normal beagle dogs, oral capsules of LY5 powder; assay type: in vivo; settings: plasma, fasted; for AUC(0-inf): read-out: AUC inf-obs
Description: LY5 was evaluated in two normal purpose-bred beagle dogs (female 8.8 kg; male 11.2 kg) receiving a single dose of 1mg/kg LY5 IV then orally by gavage 7 days later to establish the PK profile and assess the spectrum of clinical toxicities associated with LY5 administration. The oral dosing was repeated in the fed and fasted state. The starting dose was determined based on allometric scaling from the maximal tolerated dose studies performed in mice. Dogs were washed out for 30 days, and then given a dose of 25 mg in a capsule orally, followed by a 50 mg capsule dose 14 days later. Full PK sampling was performed over 24 hours following each dose of LY5. The dogs received LY5 and were used for the PK analysis but were not euthanized upon conclusion of the study.
as §2

[4] = Toxicity / tolerability in mice; assay type: in vivo
Description: as §1

[5] = female, Dog #2, 25 mg oral capsule
[6] = female, Dog #2, 50mg oral capsule
[7] = male, Dog #1, 25 mg oral capsule
[8] = male, Dog #1, 50mg oral capsule

**Q.** Which “phosphorylation of STAT4” value [1] does the source give for NS(=O)(=O)c1cccc2c1C(=O)C=C(Nc1cccnc1)C2=O [LY5, 5,8-dioxo-6-(pyridin-3-ylamino)-5,8-dihydronaphthalene-1-sulfonamide] here?
**A.** did not inhibit

**Q.** What about the AUC ([2]; 5 mg/kg IP) of the same compound?
**A.** 0.717 µM·h

**Q.** What about the Cmax ([2]; 5 mg/kg IP) of the same compound?
**A.** 545 nM

**Q.** And the Tmax ([2]; 5 mg/kg IP)?
**A.** 0.083 h

**Q.** And the AUC(0-inf) ([2]; 5 mg/kg IP)?
**A.** 0.794 µM·h

**Q.** And the bioavailability ([2]; 5 mg/kg IP)?
**A.** 69.5%

**Q.** What about the AUC ([2]; 5 mg/kg IV) of the same compound?
**A.** 1.14 µM·h

**Q.** What about the Cmax ([2]; 5 mg/kg IV) of the same compound?
**A.** 1660 nM

**Q.** What about the Tmax ([2]; 5 mg/kg IV) of the same compound?
**A.** 0.083 h

**Q.** What about the AUC(0-inf) ([2]; 5 mg/kg IV) of the same compound?
**A.** 1.14 µM·h

**Q.** What about the AUC ([2]; 5 mg/kg PO) of the same compound?
**A.** 0.784 µM·h

**Q.** What about the Cmax ([2]; 5 mg/kg PO) of the same compound?
**A.** 509 nM

**Q.** And the Tmax ([2]; 5 mg/kg PO)?
**A.** 0.5 h

**Q.** And the AUC(0-inf) ([2]; 5 mg/kg PO)?
**A.** 0.898 µM·h

**Q.** What about the bioavailability ([2]; 5 mg/kg PO) of the same compound?
**A.** 78.6%

**Q.** And the AUC(0-t) [3, 5]?
**A.** 2.51 µM·h

**Q.** What about the Tmax [3, 5] of the same compound?
**A.** 2 h

**Q.** What about the AUC(0-inf) [3, 5] of the same compound?
**A.** 2.53 µM·h

**Q.** What about the AUC(0-t) [3, 6] of the same compound?
**A.** 5.93 µM·h

**Q.** What about the Tmax [3, 6] of the same compound?
**A.** 4 h

**Q.** And the AUC(0-inf) [3, 6]?
**A.** 5.96 µM·h

**Q.** And the AUC(0-t) [3, 7]?
**A.** 2.62 µM·h

**Q.** And the Cmax [3, 7]?
**A.** 230 nM

**Q.** And the Tmax [3, 7]?
**A.** 2 h

**Q.** And the AUC(0-inf) [3, 7]?
**A.** 2.69 µM·h

**Q.** What about the AUC(0-t) [3, 8] of the same compound?
**A.** 2.92 µM·h

**Q.** And the Cmax [3, 8]?
**A.** 840 nM

**Q.** And the Tmax [3, 8]?
**A.** 3 h

**Q.** And the AUC(0-inf) [3, 8]?
**A.** 2.97 µM·h

**Q.** What about the Cmax ([3]; Dog #2, 25 mg oral capsule) of the same compound?
**A.** 516 nM

**Q.** What about the Cmax ([3]; Dog #2, 50mg oral capsule) of the same compound?
**A.** 909 nM

**Q.** What about the tolerable dosing [4] of the same compound?
**A.** 40 mg/kg BID

**Q.** What about the toxicity ([4]; doses received via IV, oral, or IP routes) of the same compound?
**A.** No toxicity was noted
